{
  "source": "paper PMC8844826",
  "about": "(iScience, 2022)",
  "key": {"[1]": {"target": "T1, full length PSD-95 (Homo sapiens, UniProt P78352)", "T1 construct": "FL-PSD-95 (32M3C-PSD-95 FL 1-724); made in house; host or cells: E. coli BL21-DE3-pLysS", "T1 sequence (P78352 whole entry)": "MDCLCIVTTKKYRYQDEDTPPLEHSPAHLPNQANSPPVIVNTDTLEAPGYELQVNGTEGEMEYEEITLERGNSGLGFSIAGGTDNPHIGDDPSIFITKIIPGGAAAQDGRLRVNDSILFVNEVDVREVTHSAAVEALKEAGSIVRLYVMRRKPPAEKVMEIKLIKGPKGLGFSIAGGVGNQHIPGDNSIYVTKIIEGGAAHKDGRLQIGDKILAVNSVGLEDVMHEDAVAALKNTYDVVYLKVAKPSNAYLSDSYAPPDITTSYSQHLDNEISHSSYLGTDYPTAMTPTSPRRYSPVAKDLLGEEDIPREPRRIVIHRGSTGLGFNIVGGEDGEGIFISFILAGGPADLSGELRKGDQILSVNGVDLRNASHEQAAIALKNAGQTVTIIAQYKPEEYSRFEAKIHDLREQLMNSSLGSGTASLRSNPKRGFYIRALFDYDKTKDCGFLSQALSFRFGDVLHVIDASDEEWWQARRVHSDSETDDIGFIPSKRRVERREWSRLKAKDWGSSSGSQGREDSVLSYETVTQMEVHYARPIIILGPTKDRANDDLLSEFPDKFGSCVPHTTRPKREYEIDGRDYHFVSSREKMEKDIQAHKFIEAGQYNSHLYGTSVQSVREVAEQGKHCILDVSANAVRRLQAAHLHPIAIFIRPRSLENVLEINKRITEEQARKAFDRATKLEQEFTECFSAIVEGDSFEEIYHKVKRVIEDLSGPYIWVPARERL", "experiment": "competitive fluorescence polarization (FP) binding to full length PSD-95, tracer AB-143", "conditions": "Ki,app"}, "[2]": {"system": "PSD-95", "experiment": "confocal microscopy of LLPS droplets of fluorescently labeled PSD-95", "assay_type": "biochemical, human", "conditions": "peptide 36 μM, Alexa 633-PSD-95 30 nM labeled/3 μM unlabeled, validated by SDS-PAGE sedimentation", "description": "(§1) Confocal microscopy was done using a Zeiss LSM780 using a 63x NA 1.4 plan apochromat oil objective using Argon 488 nm 25 mW, 543 nm HeNe 1.2 mW and 633 nm HeNe 5mW lasers using a detection wavelength of 490-538 nm for the 488 channel, 556-627 nm for the 543 channel, 636-758 for the 633 channel. Images were acquired using averaging of four line scans and 12-bit. The LLPS droplets were prepared in the desired concentration in PBS-TCEP at desired pH, mostly pH 7.4 unless stated otherwise, and added to an untreated lab tec (155411PK, Nunc, ThermoFischer) and imaged after being allowed to settle for 15 min at 25°C. For samples containing fluorescent protein or peptide the content of fluorescent protein or peptide was kept at 1-10% of indicated total protein or peptide concentration."}, "[3]": {"target": "T1, full length PSD-95", "experiment": "SDS-PAGE sedimentation assay with PSD-95", "assay_type": "biochemical", "conditions": "SDS-PAGE sedimentation and quantification; n = 3", "description": "(§2) Proteins were all mixed in the desired concentration in PBS-TCEP and equilibrated for 10 min before centrifugation at 20,000 g for 15 min at 25°C using a temperature-controlled table top centrifuge. Following centrifugation, the supernatant was collected and the pellet was re-suspended in an equal amount of PBS-TCEP, usually 50 μL. To ensure proper suspension of LLPS samples were vortexed before addition of SDS buffer boiling at 95°C for 5 min. Supernatant and pellet fractions were run on any kD Mini-PROTEAN TGX Precast Protein Gels (10 or 15 wells, BioRad 4569036 or 4569033). Gels were imaged using a Li-COR Odyssey gel scanner and band intensities were analyzed using ImageJ. Significance was evaluated using one-way ANOVA with Dunnett post-test, one-way ANOVA with Tukey post-test or a two-way ANOVA with Dunnett post-test."}, "[4]": {"system": "ePSD (PSD-95, Homer3, Shank3, GKAP, SynGAP)", "experiment": "SDS-PAGE sedimentation assay with ePSD", "assay_type": "biochemical", "conditions": "n = 3; for promotion of LLPS of ePSD: SDS-PAGE sedimentation and quantification, ePSD incubated with indicated peptides; for LLPS induction in the PSD-95 containing ePSD: peptide 10 μM and 100 μM", "description": "as §2"}, "[5]": {"system": "ePSD", "experiment": "confocal microscopy of ePSD LLPS droplets", "assay_type": "biochemical", "description": "as §1"}, "[6]": {"system": "15N-PDZ1-2 of PSD-95", "experiment": "1H-15N-HSQC NMR chemical shift perturbation", "assay_type": "binding", "conditions": "512 μM StgA222-R236/128 μM 15N-PDZ1-2; 50 mM Tris pH 8, 200 mM NaCl, 1 mM TCEP, 25°C", "protocol": "All NMR spectra were recorded on 600 MHz or 750 MHz Bruker Avance III HD spectrometers equipped with QCI or TCI cryo-probes at 25°C in 50 mM Tris pH 8, 200 mM NaCl, 1 mM TCEP, 10% D2O and 250 μM DSS. Spectra were processed with NMRPipe ([Delaglio et al., 1995]) or qMDD ([Kazimierczuk and Orekhov, 2011]) if non-uniform sampling was used for the acquisition and analyzed using CCPNMR analysis ([Skinner et al., 2016]). Amide nitrogen and proton chemical shift assignments were kindly shared by Prof. […] Combined chemical shift perturbations were calculated between the unbound and the bound states using."}, "[7]": {"conditions": "SDS-PAGE sedimentation, ePSD 3 μM"}},
  "note": "Peptide text beside a SMILES is read from it.",
  "data": [
    {"molecule": "CC[C@H](C)[C@H](NC(=O)[C@H](CO)NC(=O)[C@H](CO)NC(=O)[C@H](CC(C)C)NC(=O)[C@H](CCCCN)NC(=O)[C@H](CCCN=C(N)N)NC(=O)[C@H](CCCN=C(N)N)NC(=O)[C@H](CCCN=C(N)N)NC(=O)[C@H](CCC(N)=O)NC(=O)[C@H](CCCN=C(N)N)NC(=O)[C@H](CCCN=C(N)N)NC(=O)[C@H](CCCCN)NC(=O)[C@H](CCCCN)NC(=O)[C@H](CCCN=C(N)N)NC(=O)CNC(=O)[C@@H](N)Cc1ccc(O)cc1)C(=O)N[C@@H](CCC(=O)O)C(=O)N[C@@H](CO)C(=O)N[C@@H](CC(=O)O)C(=O)N[C@H](C(=O)O)C(C)C", "note": "[NA-1] (H-YGRKKRRQRRRKLSSIESDV-OH)", "values": [
      {"measurement": "Ki", "setting": "[1]; pH 6.4, competitive FP, pH 6.4", "value": 7.2, "unit": "µM"},
      {"measurement": "Ki", "setting": "[1]; pH 7.4, competitive FP, pH 7.4", "value": 4.5, "unit": "µM"},
      {"measurement": "Ki", "setting": "[1]; pH 8.4, competitive FP, pH 8.4", "value": 2.6, "unit": "µM"},
      {"measurement": "Ki", "setting": "[1]; pH 9.4, competitive FP, pH 9.4", "value": 4.1, "unit": "µM"}
    ]},
    {"molecule": "CC[C@H](C)[C@H](NC(=O)[C@H](CO)NC(=O)[C@H](CO)NC(=O)[C@H](CC(C)C)NC(=O)[C@H](CCCCN)NC(=O)[C@H](CCCNC(=N)N)NC(=O)[C@H](CCCNC(=N)N)NC(=O)[C@H](CCCNC(=N)N)NC(=O)[C@H](CCC(N)=O)NC(=O)[C@H](CCCNC(=N)N)NC(=O)[C@H](CCCNC(=N)N)NC(=O)[C@H](CCCCN)NC(=O)[C@H](CCCCN)NC(=O)[C@H](CCCNC(=N)N)NC(=O)CNC(=O)[C@@H](N)Cc1ccc(O)cc1)C(=O)N[C@@H](CCC(=O)O)C(=O)N[C@@H](CO)C(=O)N[C@@H](CC(=O)O)C(=O)N[C@H](C(=O)O)C(C)C", "note": "[NA-1] (H-YGRKKRRQRRRKLSSIESDV-OH; N-terminus and C-terminus assumed)", "values": [
      {"measurement": "pH below which LLPS of PSD-95 is induced", "setting": "[2]", "value": "below 7.4 pH"},
      {"measurement": "LLPS induction for PSD-95 alone by known inhibitors", "setting": "[3]", "value": "able"},
      {"measurement": "promotion of LLPS of ePSD", "setting": "[4]", "value": "able to promote LLPS"},
      {"measurement": "LLPS induction in the PSD-95 containing ePSD", "setting": "[4]; [7]", "value": "could induce LLPS"},
      {"measurement": "LLPS once complexed with the ePSD", "setting": "[5]", "value": "induces LLPS"}
    ]},
    {"molecule": "YGRKKRRQRRR [TAT11]", "values": [
      {"measurement": "promotion of LLPS of ePSD", "setting": "[4]", "value": "able to promote LLPS"},
      {"measurement": "LLPS induction of the ePSD", "setting": "[4]; SDS-PAGE sedimentation, peptide 10 μM, ePSD 3 μM", "value": "induced LLPS"},
      {"measurement": "chemical shift perturbations in 1H-15N-HSQC", "setting": "[6]", "value": "did not result in any chemical shift perturbations"}
    ]},
    {"molecule": "YGRKKRRQRRR-NPEG4-di-IETAA [AVLX-144-AA]", "values": [
      {"measurement": "effect on ePSD LLPS formation", "setting": "[4]; SDS-PAGE sedimentation, ePSD 3 μM, compared with AVLX-144", "value": "largely compromised the ability to drive LLPS"}
    ]},
    {"molecule": "YGRKKRRQRRR-NPEG4-di-IETDV [AVLX-144]", "values": [
      {"measurement": "pH below which LLPS of PSD-95 is induced", "setting": "[2]", "value": "below 6.4 pH"},
      {"measurement": "LLPS induction in the PSD-95 containing ePSD", "setting": "[4]; [7]", "value": "induced LLPS to a minor extent"}
    ]}
  ]
}
